What was measured:
Glomerella cingulata = test: Fungicidal effect test against fungi causing grape ripe rot disease; conditions: Colletotrichum gloeosporioides, 72 h, read-out: growth inhibition ratio
Botrytis cinerea [1] = type: cell-based; conditions: 120 h, 25 ppm by volume, Vogel medium, 20° C., five days, dark, read-out: growth inhibition ratio
Colletotrichum acutatum = test: Fungicidal effect test against fungi causing apple anthracnose; conditions: 96 h, read-out: growth inhibition ratio
Fusarium graminearum = test: microbe, parasite or virus in culture; type: cell-based; conditions: 96 h, read-out: growth inhibition ratio
[2] = tested on: Erysiphe graminis f.sp.tritici; test: Control test of wheat powdery mildew disease (sprayed young wheat seedlings); type: in vivo; conditions: Blumeria graminis, 144 h, 125 ppm by mass spray, six days after inoculation
Description: [formula] […] Then, the drug liquid was sprayed onto young wheat seedlings cultivated in a nursery pot (variety “Chihoku”, one-to two-leaf stage), and then air-dried. Thereafter, conidiospores of fungi causing wheat powdery mildew disease (Erysiphe graminis f.sp.tritici) were sprinkled on the young wheat seedlings to inoculate them (treated area). As a control, the conidiospores of fungi causing wheat powdery mildew disease (Erysiphe graminis f.sp.tritici) were sprinkled on young wheat seedlings unsprayed with the drug liquid (untreated area). They were left still in a greenhouse at 20° C. Six days after inoculation, leaves of young wheat seedlings were visually observed, and the lesion area ratio was determined to calculate the control value in a similar manner to the previous test.

Botrytis cinerea [3] = test: Control test of cucumber gray mold (sprayed young cucumber seedlings); type: in vivo; conditions: 96 h, four days after inoculation; for pest or weed control at 125 ppm: 125 ppm by mass spray; for pest or weed control at 25 ppm: 25 ppm by mass spray
Method: Then, the drug liquid was sprayed onto young cucumber seedlings cultivated in a nursery pot (variety “Jihai”-based, cotyledon stage), and then air-dried. […] They were left still in a moist room at 20° C. Four days after inoculation, leaves of the young cucumber seedlings were visually observed, and the control value was calculated from the lesion area ratio in accordance with the following equation. [formula]

Venturia inaequalis = test: Control test of apple scab disease (sprayed young apple seedlings); type: in vivo; conditions: 125 ppm by mass spray, 12 to 14 days after inoculation
Method: [formula] […] Then, the drug liquid was sprayed onto young apple seedlings cultivated in a nursery pot (variety “Orin”, three-to four-leaf stage), and then air-dried. Thereafter, conidiospores of fungi causing apple scab disease (Venturia inaequalis) were inoculated thereon (treated area). As a control, the conidiospores were inoculated in a similar manner to the above on young apple seedlings unsprayed with the drug liquid (untreated area). They were left still at 20° C. in a moist room with light and dark cycles repeated every 12 hours. 12 Days to 14 days after inoculation, leaves of young apple seedlings were visually observed, and the control value was calculated from the lesion area ratio in accordance with the equation used in the control test of cucumber gray mold.

Cc1ccc(CNNC(=O)c2cc(C)nnc2Oc2cccc(C3CC3)c2F)c(C)c1 [b-1]
≥ 75%: inhibition of growth at 25 ppm (Glomerella cingulata) | inhibition of growth at 25 ppm (Botrytis cinerea [1]) | inhibition of growth at 25 ppm (Colletotrichum acutatum) | inhibition of growth at 25 ppm (Fusarium graminearum)

Cc1cc(C(=O)NNCc2ccc(Cl)cc2Cl)c(Oc2cccc(C3CC3)c2F)nn1 [b-7]
≥ 75%: inhibition of growth at 25 ppm (Glomerella cingulata) | inhibition of growth at 25 ppm (Botrytis cinerea [1]) | inhibition of growth at 25 ppm (Colletotrichum acutatum) | inhibition of growth at 25 ppm (Fusarium graminearum)

Cc1ccc(CNNC(=O)c2cc(C)ncc2Oc2cccc(C3CC3)c2F)c(C)c1 [b-8]
≥ 75%: inhibition of growth at 25 ppm (Glomerella cingulata) | inhibition of growth at 25 ppm (Botrytis cinerea [1]) | inhibition of growth at 25 ppm (Colletotrichum acutatum) | inhibition of growth at 25 ppm (Fusarium graminearum)

COC(=O)N(Cc1ccc(OC)cc1OC)NC(=O)c1cc(C)ncc1Oc1cccc(Br)c1 [b-87]
≥ 75%: inhibition of growth at 25 ppm (Glomerella cingulata) | inhibition of growth at 25 ppm (Botrytis cinerea [1]) | inhibition of growth at 25 ppm (Colletotrichum acutatum) | inhibition of growth at 25 ppm (Fusarium graminearum)

COC(=O)N(Cc1ccc(C)cc1C)NC(=O)c1cc(C)nnc1Oc1cncc(Br)c1 [b-96]
≥ 75%: inhibition of growth at 25 ppm (Glomerella cingulata) | pest or weed control at 125 ppm [2] | pest or weed control at 125 ppm (Botrytis cinerea [3]) | inhibition of growth at 25 ppm (Botrytis cinerea [1]) | inhibition of growth at 25 ppm (Colletotrichum acutatum) | pest or weed control at 125 ppm (Venturia inaequalis)

COC(=O)N(Cc1ccc(C)cc1)NC(=O)c1cc(C)nnc1Oc1cccc(C2CC2)c1F [b-101]
≥ 75%: inhibition of growth at 25 ppm (Glomerella cingulata) | pest or weed control at 125 ppm [2] | pest or weed control at 25 ppm (Botrytis cinerea [3]) | pest or weed control at 125 ppm (Botrytis cinerea [3]) | inhibition of growth at 25 ppm (Botrytis cinerea [1]) | inhibition of growth at 25 ppm (Colletotrichum acutatum) | pest or weed control at 125 ppm (Venturia inaequalis)

COC(=O)N(Cc1ccccc1C)NC(=O)c1cc(C)nnc1Oc1cccc(C2CC2)c1F [b-103]
≥ 75%: inhibition of growth at 25 ppm (Glomerella cingulata) | pest or weed control at 125 ppm [2] | pest or weed control at 25 ppm (Botrytis cinerea [3]) | pest or weed control at 125 ppm (Botrytis cinerea [3]) | inhibition of growth at 25 ppm (Botrytis cinerea [1]) | inhibition of growth at 25 ppm (Colletotrichum acutatum) | pest or weed control at 125 ppm (Venturia inaequalis)

COC(=O)N(Cc1ccc(C(F)(F)F)cc1C)NC(=O)c1cc(C)nnc1Oc1cccc(C2CC2)c1F [b-109]
≥ 75%: inhibition of growth at 25 ppm (Glomerella cingulata) | pest or weed control at 125 ppm [2] | pest or weed control at 25 ppm (Botrytis cinerea [3]) | pest or weed control at 125 ppm (Botrytis cinerea [3]) | inhibition of growth at 25 ppm (Botrytis cinerea [1]) | inhibition of growth at 25 ppm (Colletotrichum acutatum) | pest or weed control at 125 ppm (Venturia inaequalis)

COC(=O)N(Cc1ccc(C)cc1C)NC(=O)c1cc(C)nnc1Oc1cccc(I)c1 [b-114]
≥ 75%: inhibition of growth at 25 ppm (Glomerella cingulata) | pest or weed control at 125 ppm [2] | pest or weed control at 125 ppm (Botrytis cinerea [3]) | inhibition of growth at 25 ppm (Botrytis cinerea [1]) | inhibition of growth at 25 ppm (Colletotrichum acutatum) | pest or weed control at 125 ppm (Venturia inaequalis)

COC(=O)N(Cc1ccc(F)cc1C)NC(=O)c1cc(C)nnc1Oc1cccc(C2CC2)c1F [b-121]
≥ 75%: inhibition of growth at 25 ppm (Glomerella cingulata) | pest or weed control at 125 ppm [2] | pest or weed control at 25 ppm (Botrytis cinerea [3]) | pest or weed control at 125 ppm (Botrytis cinerea [3]) | inhibition of growth at 25 ppm (Botrytis cinerea [1]) | inhibition of growth at 25 ppm (Colletotrichum acutatum) | pest or weed control at 125 ppm (Venturia inaequalis)

COC(=O)N(Cc1ccc(C#N)cc1C)NC(=O)c1cc(C)ncc1Oc1cccc(C2CC2)c1F [b-128]
≥ 75%: inhibition of growth at 25 ppm (Glomerella cingulata) | inhibition of growth at 25 ppm (Botrytis cinerea [1]) | inhibition of growth at 25 ppm (Colletotrichum acutatum) | inhibition of growth at 25 ppm (Fusarium graminearum)

COC(=O)N(Cc1ccc(C)cc1C)NC(=O)c1cc(C)nnc1Oc1ccccc1 [b-143]
≥ 75%: inhibition of growth at 25 ppm (Glomerella cingulata) | inhibition of growth at 25 ppm (Botrytis cinerea [1]) | inhibition of growth at 25 ppm (Colletotrichum acutatum) | inhibition of growth at 25 ppm (Fusarium graminearum)

COC(=O)N(Cc1ccc(OC)cc1C)NC(=O)c1ccncc1Oc1cccc(C2CC2)c1F [b-151]
≥ 75%: inhibition of growth at 25 ppm (Glomerella cingulata) | pest or weed control at 125 ppm [2] | pest or weed control at 25 ppm (Botrytis cinerea [3]) | pest or weed control at 125 ppm (Botrytis cinerea [3]) | inhibition of growth at 25 ppm (Botrytis cinerea [1]) | inhibition of growth at 25 ppm (Colletotrichum acutatum) | pest or weed control at 125 ppm (Venturia inaequalis)

COC(=O)N(Cc1ccc(OC(F)(F)F)cc1C)NC(=O)c1cc(C)nnc1Oc1cccc(C2CC2)c1F [b-158]
≥ 75%: inhibition of growth at 25 ppm (Glomerella cingulata) | pest or weed control at 125 ppm [2] | pest or weed control at 25 ppm (Botrytis cinerea [3]) | pest or weed control at 125 ppm (Botrytis cinerea [3]) | inhibition of growth at 25 ppm (Botrytis cinerea [1]) | inhibition of growth at 25 ppm (Colletotrichum acutatum) | pest or weed control at 125 ppm (Venturia inaequalis)

COC(=O)N(Cc1cccc(C)c1)NC(=O)c1cc(C)nnc1Oc1cccc(C2CC2)c1F [b-159]
≥ 75%: inhibition of growth at 25 ppm (Glomerella cingulata) | pest or weed control at 125 ppm [2] | pest or weed control at 25 ppm (Botrytis cinerea [3]) | pest or weed control at 125 ppm (Botrytis cinerea [3]) | inhibition of growth at 25 ppm (Botrytis cinerea [1]) | inhibition of growth at 25 ppm (Colletotrichum acutatum) | pest or weed control at 125 ppm (Venturia inaequalis)

COC(=O)N(Cc1ccc(C2CC2)cc1)NC(=O)c1cc(C)nnc1Oc1cccc(C2CC2)c1F [b-163]
≥ 75%: inhibition of growth at 25 ppm (Glomerella cingulata) | pest or weed control at 125 ppm [2] | pest or weed control at 25 ppm (Botrytis cinerea [3]) | pest or weed control at 125 ppm (Botrytis cinerea [3]) | inhibition of growth at 25 ppm (Botrytis cinerea [1]) | inhibition of growth at 25 ppm (Colletotrichum acutatum) | pest or weed control at 125 ppm (Venturia inaequalis)

COC(=O)N(Cc1ccc(OC)cc1C)NC(=O)c1cc(C#N)ncc1Oc1cccc(C2CC2)c1F [b-167]
≥ 75%: inhibition of growth at 25 ppm (Glomerella cingulata) | inhibition of growth at 25 ppm (Botrytis cinerea [1]) | inhibition of growth at 25 ppm (Colletotrichum acutatum) | inhibition of growth at 25 ppm (Fusarium graminearum)

COC(=O)N(Cc1ccc(C)cc1C)NC(=O)c1c(Oc2cccc(Cl)c2F)nnc2c1CCC2 [b-175]
≥ 75%: inhibition of growth at 25 ppm (Glomerella cingulata) | inhibition of growth at 25 ppm (Botrytis cinerea [1]) | inhibition of growth at 25 ppm (Colletotrichum acutatum) | inhibition of growth at 25 ppm (Fusarium graminearum)

Cc1ccc(CN(NC(=O)c2cc(C)nnc2Oc2cccc(C3CC3)c2F)C(=O)OCc2ccccc2)c(C)c1 [b-182]
≥ 75%: inhibition of growth at 25 ppm (Glomerella cingulata) | pest or weed control at 125 ppm [2] | pest or weed control at 25 ppm (Botrytis cinerea [3]) | pest or weed control at 125 ppm (Botrytis cinerea [3]) | inhibition of growth at 25 ppm (Botrytis cinerea [1]) | inhibition of growth at 25 ppm (Colletotrichum acutatum) | pest or weed control at 125 ppm (Venturia inaequalis)

Cc1ccc(CN(NC(=O)c2cc(C)nnc2Oc2cccc(C3CC3)c2F)C(=O)OCC2CC2)c(C)c1 [b-183]
≥ 75%: inhibition of growth at 25 ppm (Glomerella cingulata) | pest or weed control at 125 ppm [2] | pest or weed control at 25 ppm (Botrytis cinerea [3]) | pest or weed control at 125 ppm (Botrytis cinerea [3]) | inhibition of growth at 25 ppm (Botrytis cinerea [1]) | inhibition of growth at 25 ppm (Colletotrichum acutatum) | pest or weed control at 125 ppm (Venturia inaequalis)

COC(=O)N(Cc1ccc(C)cc1C)NC(=O)c1ccnnc1Oc1cccc(C2CC2)c1F [b-189]
≥ 75%: inhibition of growth at 25 ppm (Glomerella cingulata) | pest or weed control at 125 ppm [2] | pest or weed control at 25 ppm (Botrytis cinerea [3]) | pest or weed control at 125 ppm (Botrytis cinerea [3]) | inhibition of growth at 25 ppm (Botrytis cinerea [1]) | inhibition of growth at 25 ppm (Colletotrichum acutatum) | pest or weed control at 125 ppm (Venturia inaequalis)

COC(=O)N(Cc1ccc(C)cc1C)NC(=O)c1ccnnc1Oc1cccc(Cl)c1F [b-190]
≥ 75%: inhibition of growth at 25 ppm (Glomerella cingulata) | pest or weed control at 125 ppm [2] | pest or weed control at 25 ppm (Botrytis cinerea [3]) | pest or weed control at 125 ppm (Botrytis cinerea [3]) | inhibition of growth at 25 ppm (Botrytis cinerea [1]) | inhibition of growth at 25 ppm (Colletotrichum acutatum) | pest or weed control at 125 ppm (Venturia inaequalis)

COC(=O)N(Cc1ccc(OC)cc1C)NC(=O)c1c(C)cnnc1Oc1cccc(C2CC2)c1F [b-192]
≥ 75%: inhibition of growth at 25 ppm (Glomerella cingulata) | pest or weed control at 125 ppm [2] | pest or weed control at 25 ppm (Botrytis cinerea [3]) | pest or weed control at 125 ppm (Botrytis cinerea [3]) | inhibition of growth at 25 ppm (Botrytis cinerea [1]) | inhibition of growth at 25 ppm (Colletotrichum acutatum) | pest or weed control at 125 ppm (Venturia inaequalis)

COC(=O)N(Cc1ccc(OC)cc1C)NC(=O)c1c(F)cncc1Oc1cccc(C2CC2)c1F [b-201]
≥ 75%: inhibition of growth at 25 ppm (Glomerella cingulata) | pest or weed control at 125 ppm [2] | pest or weed control at 25 ppm (Botrytis cinerea [3]) | pest or weed control at 125 ppm (Botrytis cinerea [3]) | inhibition of growth at 25 ppm (Botrytis cinerea [1]) | inhibition of growth at 25 ppm (Colletotrichum acutatum) | pest or weed control at 125 ppm (Venturia inaequalis)

COC(=O)N(Cc1ccc(C)cc1C)NC(=O)c1c(Cl)cncc1Oc1cccc(C2CC2)c1F [b-205]
≥ 75%: inhibition of growth at 25 ppm (Glomerella cingulata) | pest or weed control at 125 ppm [2] | pest or weed control at 125 ppm (Botrytis cinerea [3]) | inhibition of growth at 25 ppm (Botrytis cinerea [1]) | inhibition of growth at 25 ppm (Colletotrichum acutatum) | pest or weed control at 125 ppm (Venturia inaequalis)

COC(=O)N(Cc1ccc(OC)cc1C)NC(=O)c1c(Cl)cncc1Oc1cccc(C2CC2)c1F [b-206]
≥ 75%: inhibition of growth at 25 ppm (Glomerella cingulata) | pest or weed control at 125 ppm [2] | pest or weed control at 25 ppm (Botrytis cinerea [3]) | pest or weed control at 125 ppm (Botrytis cinerea [3]) | inhibition of growth at 25 ppm (Botrytis cinerea [1]) | inhibition of growth at 25 ppm (Colletotrichum acutatum) | pest or weed control at 125 ppm (Venturia inaequalis)

COC(=O)N(Cc1ccc(C)cc1C)/N=C(\OC)c1cc(C)nnc1Oc1cccc(Cl)c1F [b-220, Methyl (Z)-2-((3-(3-chloro-2-fluorophenoxy)-6-methylpyridazin-4-yl)(methoxy)methylene)-1-(2,4-dimethylbenzyl)hydrazine-1-carboxylate]
≥ 75%: inhibition of growth at 25 ppm (Glomerella cingulata) | pest or weed control at 125 ppm [2] | pest or weed control at 125 ppm (Botrytis cinerea [3]) | inhibition of growth at 25 ppm (Botrytis cinerea [1]) | inhibition of growth at 25 ppm (Colletotrichum acutatum) | pest or weed control at 125 ppm (Venturia inaequalis)

Source: patent publication US20260198493A1, “HYDRAZIDE COMPOUND AND AGRICULTURAL/HORTICULTURAL FUNGICIDE” (Nippon Soda Co., Ltd., priority 2022, published 2026)
